According to paper doi:10.1101/2024.08.19.608619, “Discovery of potent SARS-CoV-2 nsp3 macrodomain inhibitors uncovers lack of translation to cellular antiviral response” (bioRxiv, 2024):
Read-outs that look alike come from different tables or passages of the source.

How the values were obtained:
SARS-CoV-2 nsp3-mac1 [1] = target: T1, SARS-CoV-2 nsp3-mac1 (Severe acute respiratory syndrome coronavirus 2, UniProt P0DTD1); experiment: biochemical; set-up: SARS-CoV-2 nsp3 macrodomain TR-FRET single point, per cent inhibition, n=2
SARS-CoV-2 nsp3-mac1 [2] = target: T1, SARS-CoV-2 nsp3-mac1; experiment: biochemical; format: biochemical; details: SARS-CoV-2 nsp3 macrodomain TR-FRET single point
[3] = read-out: perc_inhibition_mean, batch_name=ASAP-0000454-001
[4] = read-out: perc_inhibition_mean, batch_name=ASAP-0000455-001
[5] = read-out: perc_inhibition_mean, batch_name=ASAP-0000456-001
[6] = read-out: perc_inhibition_mean, batch_name=ASAP-0000457-001
[7] = read-out: perc_inhibition_mean, batch_name=ASAP-0000458-001
[8] = read-out: perc_inhibition_mean, batch_name=ASAP-0000459-001
[9] = read-out: perc_inhibition_mean, batch_name=ASAP-0000460-001
[10] = read-out: perc_inhibition_mean, batch_name=ASAP-0000461-001
[11] = read-out: perc_inhibition_mean, batch_name=ASAP-0000462-001
[12] = read-out: perc_inhibition_mean, batch_name=ASAP-0000463-001
[13] = read-out: perc_inhibition_mean, batch_name=ASAP-0000464-001
[14] = read-out: perc_inhibition_mean, batch_name=ASAP-0000465-001
[15] = read-out: perc_inhibition_mean, batch_name=ASAP-0000466-001
[16] = read-out: perc_inhibition_mean, batch_name=ASAP-0000467-001
[17] = read-out: perc_inhibition_mean, batch_name=ASAP-0000468-001
[18] = read-out: perc_inhibition_mean, batch_name=ASAP-0000469-001
[19] = read-out: perc_inhibition_mean, batch_name=ASAP-0000470-001
[20] = read-out: perc_inhibition_mean, batch_name=ASAP-0000471-001

Compound: CC(C)[C@@H]1[C@H](O)CCN1c1ncnc2[nH]ccc12 [ASAP-0000454]
- inhibition at 49.75 µM (SARS-CoV-2 nsp3-mac1 [1]; [3]): 17.7%
- inhibition at 99.5 µM (SARS-CoV-2 nsp3-mac1 [1]; [3]): 32.2%
- perc_inhibition_mean (SARS-CoV-2 nsp3-mac1 [2]; concentration 49.75 uM): 17.696%
- perc_inhibition_mean (SARS-CoV-2 nsp3-mac1 [2]; concentration 99.5 uM): 32.152%

Compound: CC(C)[C@@H](Nc1ncnc2[nH]ccc12)c1cccs1 [ASAP-0000455]
- inhibition at 49.75 µM (SARS-CoV-2 nsp3-mac1 [1]; [4]): 84.7%
- inhibition at 99.5 µM (SARS-CoV-2 nsp3-mac1 [1]; [4]): 89.9%
- perc_inhibition_mean (SARS-CoV-2 nsp3-mac1 [2]; concentration 49.75 uM): 84.659%
- perc_inhibition_mean (SARS-CoV-2 nsp3-mac1 [2]; concentration 99.5 uM): 89.893%

Compound: O=C(O)c1cnc(C(=O)N2CCC(c3ccn4ncc(C(=O)N5CCCCC5)c4c3)CC2)cn1 [ASAP-0000456]
- inhibition at 49.75 µM (SARS-CoV-2 nsp3-mac1 [1]; [5]): 27.5%
- inhibition at 99.5 µM (SARS-CoV-2 nsp3-mac1 [1]; [5]): 46.4%
- perc_inhibition_mean (SARS-CoV-2 nsp3-mac1 [2]; concentration 49.75 uM): 27.543%
- perc_inhibition_mean (SARS-CoV-2 nsp3-mac1 [2]; concentration 99.5 uM): 46.435%

Compound: Cn1nc(C(=O)O)cc1C(=O)N1CCC(c2ccn3ncc(C(=O)N4CCCCC4)c3c2)CC1 [ASAP-0000457]
- inhibition at 49.75 µM (SARS-CoV-2 nsp3-mac1 [1]; [6]): 34.3%
- inhibition at 99.5 µM (SARS-CoV-2 nsp3-mac1 [1]; [6]): 52.7%
- perc_inhibition_mean (SARS-CoV-2 nsp3-mac1 [2]; concentration 49.75 uM): 34.252%
- perc_inhibition_mean (SARS-CoV-2 nsp3-mac1 [2]; concentration 99.5 uM): 52.667%

Compound: O=C(O)c1ccc2c(c1)ncn2-c1ccc(CNC(=O)c2ncnc3[nH]ccc23)cc1 [ASAP-0000458]
- inhibition at 49.75 µM (SARS-CoV-2 nsp3-mac1 [1]; [7]): -33.4%
- inhibition at 99.5 µM (SARS-CoV-2 nsp3-mac1 [1]; [7]): -4.65%
- perc_inhibition_mean (SARS-CoV-2 nsp3-mac1 [2]; concentration 49.75 uM): -33.429%
- perc_inhibition_mean (SARS-CoV-2 nsp3-mac1 [2]; concentration 99.5 uM): -4.649%

Compound: O=C(C[C@@H](NC(=O)c1ncnc2[nH]ccc12)C1CC1)NCc1ccc(C(=O)O)cc1 [ASAP-0000459]
- inhibition at 49.75 µM (SARS-CoV-2 nsp3-mac1 [1]; [8]): -9.86%
- inhibition at 99.5 µM (SARS-CoV-2 nsp3-mac1 [1]; [8]): 0.768%
- perc_inhibition_mean (SARS-CoV-2 nsp3-mac1 [2]; concentration 49.75 uM): -9.862%
- perc_inhibition_mean (SARS-CoV-2 nsp3-mac1 [2]; concentration 99.5 uM): 0.768%

Compound: C[C@@H](NC(=O)c1ncnc2[nH]ccc12)c1ncc(C(=O)O)c(=O)[nH]1 [ASAP-0000460]
- inhibition at 49.75 µM (SARS-CoV-2 nsp3-mac1 [1]; [9]): 4.87%
- inhibition at 99.5 µM (SARS-CoV-2 nsp3-mac1 [1]; [9]): 10.7%
- perc_inhibition_mean (SARS-CoV-2 nsp3-mac1 [2]; concentration 49.75 uM): 4.872%
- perc_inhibition_mean (SARS-CoV-2 nsp3-mac1 [2]; concentration 99.5 uM): 10.734%

Compound: O=C(N[C@@H](C(=O)O)[C@@H](O)Cc1ccccc1)c1ncnc2[nH]ccc12 [ASAP-0000461]
- inhibition at 49.75 µM (SARS-CoV-2 nsp3-mac1 [1]; [10]): 3.79%
- inhibition at 99.5 µM (SARS-CoV-2 nsp3-mac1 [1]; [10]): 12.3%
- perc_inhibition_mean (SARS-CoV-2 nsp3-mac1 [2]; concentration 49.75 uM): 3.789%
- perc_inhibition_mean (SARS-CoV-2 nsp3-mac1 [2]; concentration 99.5 uM): 12.267%

Compound: CC(C)[C@@H](Nc1ncnc2[nH]ccc12)C(N)=O [ASAP-0000462]
- inhibition at 49.75 µM (SARS-CoV-2 nsp3-mac1 [1]; [11]): 64.4%
- inhibition at 99.5 µM (SARS-CoV-2 nsp3-mac1 [1]; [11]): 77.7%
- perc_inhibition_mean (SARS-CoV-2 nsp3-mac1 [2]; concentration 49.75 uM): 64.403%
- perc_inhibition_mean (SARS-CoV-2 nsp3-mac1 [2]; concentration 99.5 uM): 77.698%

Compound: Cn1cc([C@@H](Nc2ncnc3[nH]ccc23)C2CCC2)cn1 [ASAP-0000463]
- inhibition at 49.75 µM (SARS-CoV-2 nsp3-mac1 [1]; [12]): 78.1%
- inhibition at 99.5 µM (SARS-CoV-2 nsp3-mac1 [1]; [12]): 91%
- perc_inhibition_mean (SARS-CoV-2 nsp3-mac1 [2]; concentration 49.75 uM): 78.069%
- perc_inhibition_mean (SARS-CoV-2 nsp3-mac1 [2]; concentration 99.5 uM): 91.032%

Compound: C[C@@H](Cc1ccc(Cl)s1)Nc1ccc([C@@H](CC(=O)O)NC(=O)c2c[nH]c3ncncc23)cc1 [ASAP-0000464]
- inhibition at 49.75 µM (SARS-CoV-2 nsp3-mac1 [1]; [13]): -1.54%
- inhibition at 99.5 µM (SARS-CoV-2 nsp3-mac1 [1]; [13]): 1.95%
- perc_inhibition_mean (SARS-CoV-2 nsp3-mac1 [2]; concentration 49.75 uM): -1.543%
- perc_inhibition_mean (SARS-CoV-2 nsp3-mac1 [2]; concentration 99.5 uM): 1.952%

Compound: CC(C)[C@H]1CN(c2ncnc3[nH]ccc23)[C@H]1C(C)C [ASAP-0000465]
- inhibition at 49.75 µM (SARS-CoV-2 nsp3-mac1 [1]; [14]): 0.348%
- inhibition at 99.5 µM (SARS-CoV-2 nsp3-mac1 [1]; [14]): -2.2%
- perc_inhibition_mean (SARS-CoV-2 nsp3-mac1 [2]; concentration 49.75 uM): 0.348%
- perc_inhibition_mean (SARS-CoV-2 nsp3-mac1 [2]; concentration 99.5 uM): -2.201%

Compound: CC(C)[C@@H](CCN(C)C(=O)c1nn2cccnc2c1Cl)Nc1ncnc2[nH]ccc12 [ASAP-0000466]
- inhibition at 49.75 µM (SARS-CoV-2 nsp3-mac1 [1]; [15]): 0.844%
- inhibition at 99.5 µM (SARS-CoV-2 nsp3-mac1 [1]; [15]): 1.65%
- perc_inhibition_mean (SARS-CoV-2 nsp3-mac1 [2]; concentration 49.75 uM): 0.844%
- perc_inhibition_mean (SARS-CoV-2 nsp3-mac1 [2]; concentration 99.5 uM): 1.645%

Compound: COc1ccccc1C[C@@H](Nc1ncnc2[nH]ccc12)C(C)C [ASAP-0000467]
- inhibition at 49.75 µM (SARS-CoV-2 nsp3-mac1 [1]; [16]): 31.7%
- inhibition at 99.5 µM (SARS-CoV-2 nsp3-mac1 [1]; [16]): 48.5%
- perc_inhibition_mean (SARS-CoV-2 nsp3-mac1 [2]; concentration 49.75 uM): 31.716%
- perc_inhibition_mean (SARS-CoV-2 nsp3-mac1 [2]; concentration 99.5 uM): 48.499%

Compound: Cc1nn(-c2ccccc2)c(C)c1[C@H]1COCCN1c1ncnc2[nH]ccc12 [ASAP-0000468]
- inhibition at 49.75 µM (SARS-CoV-2 nsp3-mac1 [1]; [17]): -0.042%
- inhibition at 99.5 µM (SARS-CoV-2 nsp3-mac1 [1]; [17]): -4.22%
- perc_inhibition_mean (SARS-CoV-2 nsp3-mac1 [2]; concentration 49.75 uM): -0.042%
- perc_inhibition_mean (SARS-CoV-2 nsp3-mac1 [2]; concentration 99.5 uM): -4.216%

Compound: O=C(N[C@H](Cn1cnc2cc(F)c(F)cc21)C(=O)O)c1ncnc2[nH]ccc12 [ASAP-0000469]
- inhibition at 49.75 µM (SARS-CoV-2 nsp3-mac1 [1]; [18]): -2.04%
- inhibition at 99.5 µM (SARS-CoV-2 nsp3-mac1 [1]; [18]): 8.39%
- perc_inhibition_mean (SARS-CoV-2 nsp3-mac1 [2]; concentration 49.75 uM): -2.035%
- perc_inhibition_mean (SARS-CoV-2 nsp3-mac1 [2]; concentration 99.5 uM): 8.395%

Compound: C[C@@H](Nc1ncnc2[nH]ccc12)c1cnn(Cc2ccccc2)c1 [ASAP-0000470]
- inhibition at 49.75 µM (SARS-CoV-2 nsp3-mac1 [1]; [19]): -4.11%
- inhibition at 99.5 µM (SARS-CoV-2 nsp3-mac1 [1]; [19]): 3.18%
- perc_inhibition_mean (SARS-CoV-2 nsp3-mac1 [2]; concentration 49.75 uM): -4.105%
- perc_inhibition_mean (SARS-CoV-2 nsp3-mac1 [2]; concentration 99.5 uM): 3.18%

Compound: CC(C)[C@@H](Nc1ncnc2[nH]ccc12)c1nc2ccccc2[nH]1 [ASAP-0000471]
- inhibition at 49.75 µM (SARS-CoV-2 nsp3-mac1 [1]; [20]): 37.3%
- inhibition at 99.5 µM (SARS-CoV-2 nsp3-mac1 [1]; [20]): 52.5%
- perc_inhibition_mean (SARS-CoV-2 nsp3-mac1 [2]; concentration 49.75 uM): 37.305%
- perc_inhibition_mean (SARS-CoV-2 nsp3-mac1 [2]; concentration 99.5 uM): 52.508%
